How the values were obtained:
Assay type in all cases: in vivo
Galium spurium = assay: Test Example 4: herbicidal effect by soil treatment (symbol Q); conditions: application herbicide amount 320 g/ha
In short: (§1)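 Seeds were sown in sterilized diluvial soil, covered with about 1.5 cm of soil, and the soil surface was sprayed with a water-diluted emulsion of the compound at a predetermined rate. Plants grew in a greenhouse at 25° C. to 30° C.; effects were scored visually 3 weeks after application.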

[1] = system: Echinochloa oryzacola Vasing.; assay: Test Example 2: herbicidal activity, application during weed generation in submerged conditions (symbol A); conditions: Table 23; application herbicide amount 320 g/ha; grade 0-5 by criteria of Test Example 1
In short: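 Alluvial soil in pots was flooded to a 4 cm water depth and sown with a mix of the three weed species, then grown in a greenhouse at 25° C. to 30° C. At the one- to two-leaf stage, an emulsifiable formulation diluted in water to a set dose was applied to the water surface. Effects were scored visually 3 weeks later.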

corn = assay: Test Example 5: effect on crop by foliage application, plastic box (symbol c); conditions: 320 g/ha, 3 weeks after application
In short: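 Seeds were sown in spots in sterilized diluvial soil held in a plastic box 21 cm × 13 cm × 7 cm deep, covered with about 1.5 cm of soil, and grown in a greenhouse at 25° C. to 30° C.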

Chenopodium album [2] = assay: Test Example 4: herbicidal effect by soil treatment (symbol O); conditions: application herbicide amount 320 g/ha
In short: as §1

Cyperus difformis = assay: Test Example 3: herbicidal effect by foliage application, Wagner pot (symbol E); conditions: application herbicide amount 320 g/ha
In short: (§2)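 Weeds and rice were sown in alluvial soil under 0.1–0.5 cm of standing water and grown for 14 days in a 25–30 °C greenhouse. An emulsion of the compound, diluted in water to a set dose, was sprayed evenly onto the foliage. Effect was scored against fixed criteria 3 weeks after treatment.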

Alopecurus myosuroides = assay: Test Example 4: herbicidal effect by soil treatment (symbol J); conditions: application herbicide amount 320 g/ha
In short: as §1

[3] = system: directly sowed rice plant; assay: Test Example 3: effect on crop by foliage application, Wagner pot (symbol b); conditions: application herbicide amount 320 g/ha
In short: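 Greenhouse culture at 25–30 °C of seeded rice, Cyperus difformis, Leptochloa chinensis and Echinochloa crus-galli var. crus-galli, in alluvial soil held under 0.1–0.5 cm of water in a Wagner pot.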

wheat = assay: Test Example 4: effect on crop by soil treatment (symbol e); conditions: application herbicide amount 320 g/ha
In short: (§3)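 Diluvial soil (sterilized) in boxes; seeds placed spot-wise alongside weed species; ~1.5 cm covering soil. Greenhouse, 25–30° C.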

Lolium multiflorum Lam. = assay: Test Example 4: herbicidal effect by soil treatment (symbol K); conditions: application herbicide amount 320 g/ha
In short: as §1

Stellaria media = assay: Test Example 5: herbicidal effect by foliage application, plastic box (symbol P); conditions: 320 g/ha, 3 weeks after application
In short: (§4)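 Herbicide, formulated as an emulsion and diluted in water, is sprayed onto the aerial parts of 14-day seedlings. These were grown at 25° C. to 30° C. in sterilized diluvial soil; effects are graded after 3 weeks.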

Chenopodium album [4] = assay: Test Example 5: herbicidal effect by foliage application, plastic box (symbol O); conditions: 320 g/ha, 3 weeks after application
In short: as §4

Abutilon theophrasti = assay: Test Example 4: herbicidal effect by soil treatment (symbol M); conditions: application herbicide amount 320 g/ha
In short: as §1

Leptochloa chinensis = assay: Test Example 3: herbicidal effect by foliage application, Wagner pot (symbol D); conditions: application herbicide amount 320 g/ha
In short: as §2

Avena fatua [5] = assay: Test Example 4: herbicidal effect by soil treatment (symbol I); conditions: application herbicide amount 320 g/ha
In short: as §1

Amaranthus retroflexus = assay: Test Example 4: herbicidal effect by soil treatment (symbol N); conditions: application herbicide amount 320 g/ha
In short: as §1

Avena fatua [6] = assay: Test Example 5: herbicidal effect by foliage application, plastic box (symbol I); conditions: 320 g/ha, 3 weeks after application
In short: as §4

rice = assay: Test Example 4: effect on crop by soil treatment (symbol b); conditions: application herbicide amount 320 g/ha
In short: as §3

Setaria viridis = assay: Test Example 4: herbicidal effect by soil treatment (symbol G); conditions: application herbicide amount 320 g/ha
In short: as §1

| Compound | Herbicidal effect grade, Q: Galium spurium (Galium spurium) | Herbicidal effect grade, A: Echinochloa oryzacola Vasing. [1] | c: corn, effect on crop (criteria of Test Example 1) (corn) | Herbicidal effect grade, O: Chenopodium album (Chenopodium album [2]) | herbicidal effect on E, grade 0-5 (Cyperus difformis) | Herbicidal effect grade, J: Alopecurus myosuroides (Alopecurus myosuroides) | effect on crop b (directly sowed rice plant), grade 0-5 [3] | Effect on crop grade, e: wheat (wheat) | Herbicidal effect grade, K: Lolium multiflorum Lam. (Lolium multiflorum Lam.) | P: Stellaria media, herbicidal effect (criteria of Test Example 1) (Stellaria media) | O: Chenopodium album, herbicidal effect (criteria of Test Example 1) (Chenopodium album [4]) | Herbicidal effect grade, M: Abutilon theophrasti (Abutilon theophrasti) | herbicidal effect on D (Leptochloa chinensis), grade 0-5 (Leptochloa chinensis) | Herbicidal effect grade, I: Avena fatua (Avena fatua [5]) | Herbicidal effect grade, N: Amaranthus retroflexus (Amaranthus retroflexus) | I: Avena fatua, herbicidal effect (criteria of Test Example 1) (Avena fatua [6]) | Effect on crop grade, b: directly sowed rice plant (rice) | Herbicidal effect grade, G: Setaria viridis (Setaria viridis) | other results |
| --- | --- | --- | --- | --- | --- | --- | --- | --- | --- | --- | --- | --- | --- | --- | --- | --- | --- | --- | --- |
| CC(=O)CC1CC(O)=C(c2c(C)cc(-n3cccn3)cc2C)C1=O (stereo not drawn) [7-024] | 0 (Herbicidal ratio of 5% or lower (almost no effect)) | 1 (Herbicidal ratio of 5% or higher and lower than 20%) | 1 (Herbicidal ratio of 5% or higher and lower than 20%) | 0 (Herbicidal ratio of 5% or lower (almost no effect)) | 2 (Herbicidal ratio of 20% or higher and lower than 40%) | 0 (Herbicidal ratio of 5% or lower (almost no effect)) | 3 (Herbicidal ratio of 40% or higher and lower than 70%) | 0 (Herbicidal ratio of 5% or lower (almost no effect)) | 0 (Herbicidal ratio of 5% or lower (almost no effect)) | 0 (Herbicidal ratio of 5% or lower (almost no effect)) | 0 (Herbicidal ratio of 5% or lower (almost no effect)) | 0 (Herbicidal ratio of 5% or lower (almost no effect)) | 5 (Herbicidal ratio of 90% or more (almost completely withered)) | 0 (Herbicidal ratio of 5% or lower (almost no effect)) | 0 (Herbicidal ratio of 5% or lower (almost no effect)) | 2 (Herbicidal ratio of 20% or higher and lower than 40%) | 5 (Herbicidal ratio of 90% or more (almost completely withered)) | 0 (Herbicidal ratio of 5% or lower (almost no effect)) | – |
| COc1cc(Br)cc(C)c1C1=C(O)CC(CC(C)=O)C1=O (stereo not drawn) [7-027, 2-(4-bromo-2-methoxy-6-methylphenyl)-3-hydroxy-5-(2-oxopropyl)cyclopent-2-enone] | 0 (Herbicidal ratio of 5% or lower (almost no effect)) | 3 (Herbicidal ratio of 40% or higher and lower than 70%) | 5 (Herbicidal ratio of 90% or more (almost completely withered)) | 0 (Herbicidal ratio of 5% or lower (almost no effect)) | – | 5 (Herbicidal ratio of 90% or more (almost completely withered)) | – | 2 (Herbicidal ratio of 20% or higher and lower than 40%) | 5 (Herbicidal ratio of 90% or more (almost completely withered)) | 0 (Herbicidal ratio of 5% or lower (almost no effect)) | 0 (Herbicidal ratio of 5% or lower (almost no effect)) | 0 (Herbicidal ratio of 5% or lower (almost no effect)) | – | 0 (Herbicidal ratio of 5% or lower (almost no effect)) | 0 (Herbicidal ratio of 5% or lower (almost no effect)) | 5 (Herbicidal ratio of 90% or more (almost completely withered)) | 5 (Herbicidal ratio of 90% or more (almost completely withered)) | 5 (Herbicidal ratio of 90% or more (almost completely withered)) | E herbicidal effect grade (Cyperus difformis; Table 24): 4 (Herbicidal ratio of 70% or higher and lower than 90%); b (directly sowed rice plant) effect on crop grade ([3]; Table 24): 5 (Herbicidal ratio of 90% or more (almost completely withered)); D (Leptochloa chinensis) herbicidal effect grade (Leptochloa chinensis; Table 24): 5 (Herbicidal ratio of 90% or more (almost completely withered)) |
| CC(=O)CC1CC(O)=C(c2c(C)cc(-c3ccc(C(F)(F)F)cc3)cc2C)C1=O (stereo not drawn) [7-005] | 0 (Herbicidal ratio of 5% or lower (almost no effect)) | 1 (Herbicidal ratio of 5% or higher and lower than 20%) | 4 (Herbicidal ratio of 70% or higher and lower than 90%) | 0 (Herbicidal ratio of 5% or lower (almost no effect)) | 0 (Herbicidal ratio of 5% or lower (almost no effect)) | 0 (Herbicidal ratio of 5% or lower (almost no effect)) | 5 (Herbicidal ratio of 90% or more (almost completely withered)) | 0 (Herbicidal ratio of 5% or lower (almost no effect)) | 2 (Herbicidal ratio of 20% or higher and lower than 40%) | 1 (Herbicidal ratio of 5% or higher and lower than 20%) | 3 (Herbicidal ratio of 40% or higher and lower than 70%) | 0 (Herbicidal ratio of 5% or lower (almost no effect)) | 5 (Herbicidal ratio of 90% or more (almost completely withered)) | 0 (Herbicidal ratio of 5% or lower (almost no effect)) | 0 (Herbicidal ratio of 5% or lower (almost no effect)) | 2 (Herbicidal ratio of 20% or higher and lower than 40%) | 1 (Herbicidal ratio of 5% or higher and lower than 20%) | 0 (Herbicidal ratio of 5% or lower (almost no effect)) | – |
| CON=C(C)CC1CC(O)=C(c2c(C)cc(-c3ccccc3)cc2OC)C1=O (stereo not drawn) [6-099] | 3 (Herbicidal ratio of 40% or higher and lower than 70%) | 5 (Herbicidal ratio of 90% or more (almost completely withered)) | 5 (Herbicidal ratio of 90% or more (almost completely withered)) | 4 (Herbicidal ratio of 70% or higher and lower than 90%) | 5 (Herbicidal ratio of 90% or more (almost completely withered)) | 5 (Herbicidal ratio of 90% or more (almost completely withered)) | 5 (Herbicidal ratio of 90% or more (almost completely withered)) | 5 (Herbicidal ratio of 90% or more (almost completely withered)) | 5 (Herbicidal ratio of 90% or more (almost completely withered)) | 4 (Herbicidal ratio of 70% or higher and lower than 90%) | 5 (Herbicidal ratio of 90% or more (almost completely withered)) | 3 (Herbicidal ratio of 40% or higher and lower than 70%) | 5 (Herbicidal ratio of 90% or more (almost completely withered)) | 5 (Herbicidal ratio of 90% or more (almost completely withered)) | 5 (Herbicidal ratio of 90% or more (almost completely withered)) | 5 (Herbicidal ratio of 90% or more (almost completely withered)) | 5 (Herbicidal ratio of 90% or more (almost completely withered)) | 5 (Herbicidal ratio of 90% or more (almost completely withered)) | – |
